{
  "source": "patent US8293724B2",
  "about": "“Therapeutic applications of fatty acid amide hydrolase inhibitors” (The United States of America, as represented by the …, priority 2007, dated 2012)",
  "key": {"[1]": {"tested_on": "spontaneously hypertensive rat (SHR)", "experiment": "Hemodynamic measurements in anesthetized spontaneously hypertensive rats", "type": "in vivo", "conditions": "for change in MAP: n=4", "procedure": "(§1) Anandamide, the CB1 receptor antagonist AM251, and the anandamide transport inhibitors AM404 and OMDM-2 were obtained from Tocris; and the CB1 antagonist SR141716 and the CB2 antagonist SR144528 were from the National Institute on Drug Abuse drug supply program. Drugs were mixed in corn oil and sonicated for 5 minutes at 4° C. The mixture was added to 4 parts of Pluronic F68 (Sigma-Aldrich) solution (40 mg/mL) dissolved in water and sonicated to obtain a stable suspension for bolus intravenous injections.\nRats were obtained from Harlan (Indianapolis, Ind.). Male, 8- to 10-month-old SHR, age-matched male Wistar-Kyoto rats (WKY), and 8- to 10-week-old male Sprague-Dawley rats were maintained on standard rat chow and water ad libitum. Dahl salt-sensitive and salt-resistant rats (male, Rapp strain, 6 weeks old) were maintained for 4 weeks on rat chow containing either 0.12% or 8% NaCl. […] Hypertension was induced in Sprague-Dawley rats by chronic infusion of angiotensin II (60 ng/min) via an osmotic minipump (Imig et al. Hypertension 2002; 39: 690-694. Rats were used 10 to 12 days after implantation of the minipump.\n(§2) For hemodynamic measurements, rats were anesthetized with pentobarbital sodium (60 mg/kg IP) and tracheotomized to facilitate breathing. Animals were placed on controlled heating pads, and core temperature, measured via a rectal probe, was maintained at 37° C. A microtip pressure-volume catheter (SPR-838; Millar Instruments) was inserted into the right carotid artery and advanced into the left ventricle (LV) under pressure control as described previously. Polyethylene cannulae (P50) were inserted into the right femoral artery and vein for measurement of mean arterial pressure (MAP) and administration of drugs, respectively. […] Heart rate, maximal LV systolic pressure, MAP, and maximal slope of systolic pressure increment (+dP/dt) were computed with a cardiac pressure-volume analysis program (PVAN2.9; Millar). Cardiac output calculated and corrected according to in vitro and in vivo volume calibrations with PVAN2.918 was normalized to body weight (cardiac index [CI]). Total peripheral resistance index (TPRI) was calculated by the equation TPRI=MAP/CI. In 3 experiments, drugs were microinjected into the fourth cerebral ventricle as described by Ramirez-Gonzalez et al. Circ Res. 1983; 53, 150-157.\n(§3) Time-dependent variables were analyzed by ANOVA followed by the Dunnett post hoc test. In other cases, the Student t test was used, as appropriate. Values with P<0.05 were considered statistically significant."}, "[2]": {"tested_on": "male DIO mice (wild-type C57Bl6/J on high-fat diet)", "experiment": "Intraperitoneal glucose tolerance test in wild-type mice with diet-induced obesity", "type": "in vivo", "conditions": "URB597 10 mg/kg i.p., 60 min before glucose 1.5 g/kg i.p., 10 mg/kg", "procedure": "(§4) Male C57Bl6/J mice, wild-type or liver-specific CB1 receptor knockout, were kept on a diet containing 60% of calories as fat (Research Diets Inc) for 14 weeks, by which time both strains have become fat due to increased adipose mass. […] Sixty minutes later the mice received 1.5 g/kg glucose i.p. and blood glucose levels were monitored for 2 hours."}, "[3]": {"tested_on": "liver-specific CB1 receptor knockout mice", "experiment": "Intraperitoneal glucose tolerance test in liver-specific CB1 receptor knockout mice on high-fat diet", "type": "in vivo", "conditions": "URB597 10 mg/kg i.p., liver-specific CB1 knockout mice on HFD", "procedure": "as §4"}, "[4]": {"biological_target": "T1, FAAH (Mus musculus, UniProt O08914)", "T1 construct": "the brain and liver removed, and tissue homogenates prepared as described above; from tissue; host or cells: mouse brain and liver homogenates after in vivo dosing", "T1 sequence (O08914 1-579)": "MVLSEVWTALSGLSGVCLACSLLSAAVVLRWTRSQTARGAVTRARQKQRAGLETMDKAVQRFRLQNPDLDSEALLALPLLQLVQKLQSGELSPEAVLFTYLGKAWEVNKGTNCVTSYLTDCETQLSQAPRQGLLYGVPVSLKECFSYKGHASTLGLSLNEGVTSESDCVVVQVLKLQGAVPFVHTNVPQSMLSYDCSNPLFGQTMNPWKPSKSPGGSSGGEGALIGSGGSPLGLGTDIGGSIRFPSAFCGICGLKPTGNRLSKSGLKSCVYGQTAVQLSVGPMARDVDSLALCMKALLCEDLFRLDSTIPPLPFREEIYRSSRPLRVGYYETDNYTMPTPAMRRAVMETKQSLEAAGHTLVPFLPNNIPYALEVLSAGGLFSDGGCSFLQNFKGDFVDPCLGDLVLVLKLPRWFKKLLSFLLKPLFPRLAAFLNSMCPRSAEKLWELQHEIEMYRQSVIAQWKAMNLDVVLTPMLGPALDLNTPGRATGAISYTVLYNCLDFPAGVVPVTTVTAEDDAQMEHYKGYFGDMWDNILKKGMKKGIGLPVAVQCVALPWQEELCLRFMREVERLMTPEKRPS", "experiment": "FAAH activity in brain and liver homogenates following in vivo administration", "set-up": "species or system mice", "conditions": "mouse", "procedure": "For the experiments illustrated in FIG. 3, FAAH activity was assessed through a different method not requiring TLC separation, as described by Jonsson et al: Br. J. Pharmacol. 133:1263-1275, 1997. […] The mice were sacrificed one hour later, the brain and liver removed, and tissue homogenates prepared as described above. [^3H]Anandamide labeled on the ethanolamide moiety was added to the homogenate and incubated at 37° C. for 10 min. The homogenate was then extracted twice with chloroform:methanol 1:1 and the radioactivity in the aqueous phase (containing the released ethanolamide) was counted."}, "[5]": {"tested_on": "normotensive controls (Sprague-Dawley rats)", "experiment": "Blood pressure in normotensive controls of angiotensin II-treated rats", "type": "in vivo, rat", "conditions": "URB597, normotensive controls of angiotensin II-treated rats", "excerpt": "(§5) Rats were obtained from Harlan (Indianapolis, Ind.). Male, 8- to 10-month-old SHR, age-matched male Wistar-Kyoto rats (WKY), and 8- to 10-week-old male Sprague-Dawley rats were maintained on standard rat chow and water ad libitum. Dahl salt-sensitive and salt-resistant rats (male, Rapp strain, 6 weeks old) were maintained for 4 weeks on rat chow containing either 0.12% or 8% NaCl. Systolic blood pressure monitored daily by the tail-cuff technique was 120±11 mm Hg (salt-sensitive, 0.12% NaCl), 180±14 mm Hg (salt-sensitive, 8% NaCl), and 118±9 mm Hg (salt-resistant, 8% NaCl). Hypertension was induced in Sprague-Dawley rats by chronic infusion of angiotensin II (60 ng/min) via an osmotic minipump (Imig et al. Hypertension 2002; 39: 690-694. Rats were used 10 to 12 days after implantation of the minipump.\n(§6) For hemodynamic measurements, rats were anesthetized with pentobarbital sodium (60 mg/kg IP) and tracheotomized to facilitate breathing. Animals were placed on controlled heating pads, and core temperature, measured via a rectal probe, was maintained at 37° C. […] Cardiac output calculated and corrected according to in vitro and in vivo volume calibrations with PVAN2.918 was normalized to body weight (cardiac index [CI]). Total peripheral resistance index (TPRI) was calculated by the equation TPRI=MAP/CI. […]"}, "[6]": {"experiment": "Non-fasting blood glucose in SHR and WKY", "conditions": "URB597 10 mg/kg i.p., n=4"}, "[7]": {"tested_on": "Wistar-Kyoto rats (WKY)", "experiment": "Hemodynamic measurements in normotensive Wistar-Kyoto rats", "type": "in vivo, rat", "procedure": "as §1, §5, §2, §3"}, "[8]": {"tested_on": "angiotensin II-treated hypertensive rats", "experiment": "Blood pressure in angiotensin II-treated hypertensive rats", "type": "in vivo, rat", "excerpt": "as §5, §6"}},
  "note": "“Also recorded” adds a separate entry of the source.",
  "data": [
    {"smiles": "NC(=O)c1cccc(-c2cccc(OC(=O)NC3CCCCC3)c2)c1", "note": "[URB597]", "values": [
      {"measurement": "ED50", "setting": "[1]; Rattus norvegicus, dose-response studies, n=3, read-out: hypotensive ED50", "result": 1.7, "unit": "mg/kg"},
      {"measurement": "hypotensive response after pretreatment with the VR1 antagonist capsazepine", "setting": "[1]; SHR", "result": "not affected by capsazepine pretreatment"},
      {"measurement": "LV systolic pressure", "setting": "[1]; URB597 10 mg/kg IV, SHR", "result": "decreased"},
      {"measurement": "TPRI", "setting": "[1]; URB597 10 mg/kg IV, SHR", "result": "decreased"},
      {"measurement": "arterial pressure", "setting": "[1]; URB597 10 mg/kg IV, SHR", "result": "decreased arterial pressure to normotensive levels"},
      {"measurement": "dP/dt", "setting": "[1]; URB597 10 mg/kg IV, SHR", "result": "decreased"},
      {"measurement": "cardiac contractility (pressure/volume relationship)", "setting": "[1]; URB597, SHR", "result": "decrease in cardiac contractility"},
      {"measurement": "effects of URB597 in the hypertensive animals in the presence of CB1 antagonists", "setting": "[1]; hypertensive animals, CB1 antagonists", "result": "could be prevented by CB1 antagonists"},
      {"measurement": "glucose intolerance", "setting": "[2]", "result": "marked increase in their glucose intolerance; also recorded: increases glucose intolerance"},
      {"measurement": "glucose tolerance", "setting": "[3]", "result": "failed to affect glucose tolerance"},
      {"measurement": "inhibition of FAAH activity in the liver", "setting": "[4]; in vivo, 10 mg/kg", "result": "significantly inhibits FAAH activity in the liver"},
      {"measurement": "inhibition of FAAH in brain", "setting": "[4]; in vivo, 10 mg/kg", "result": "near complete inhibition"},
      {"measurement": "inhibition at 10 mg/kg", "setting": "[4]; read-out: inhibition of FAAH in liver", "result": "> 90", "unit": "%"},
      {"measurement": "blood pressure", "setting": "[5]", "result": "not in their normotensive controls"},
      {"measurement": "non-fasting blood glucose after treatment", "setting": "[6]; SHR, from 104.0±7.4", "result": "144.0 ± 9.6", "unit": "mg/dL"},
      {"measurement": "non-fasting blood glucose after treatment", "setting": "[6]; WKY, from 90.0±7.2", "result": "135.3 ± 12.9", "unit": "mg/dL"},
      {"measurement": "hemodynamic effects", "setting": "[7]; URB597 10 mg/kg IV", "result": "no detectable hemodynamic effects"},
      {"measurement": "blood pressure", "setting": "[8]; URB597, angiotensin II-treated hypertensive rats", "result": "lowered blood pressure"}
    ]},
    {"smiles": "CCCCCCC(C)(C)c1cc(O)c2c(c1)OC(C)(C)[C@@H]1CC=C(CO)C[C@@H]21", "note": "[HU210]", "values": [
      {"measurement": "hypotensive EC50", "setting": "[1]; SHR, n=6", "result": 1.5, "unit": "µg/kg"},
      {"measurement": "maximal hypotensive effect", "setting": "[1]; SHR, n=6", "result": "−108±11", "unit": "mm Hg"},
      {"measurement": "hypotensive EC50", "setting": "[7]; n=6", "result": 5.9, "unit": "µg/kg"},
      {"measurement": "maximal hypotensive effect", "setting": "[7]; n=6", "result": "−39±14", "unit": "mm Hg"}
    ]},
    {"smiles": "CCCCC/C=C\\C/C=C\\C/C=C\\C/C=C\\CCCC(=O)NCCO", "note": "[anandamide]", "values": [
      {"measurement": "hypotensive response after pretreatment with the VR1 antagonist capsazepine", "setting": "[1]; SHR", "result": "not affected by capsazepine pretreatment"},
      {"measurement": "CI", "setting": "[1]; anandamide 10 mg/kg, SHR", "result": "decreases"},
      {"measurement": "TPRI", "setting": "[1]; anandamide 10 mg/kg, SHR", "result": "decreases"},
      {"measurement": "blood pressure", "setting": "[1]; anandamide 10 mg/kg, SHR", "result": "sustained decrease in blood pressure to near normotensive levels"},
      {"measurement": "cardiac contractility (dP/dt, LV systolic pressure)", "setting": "[1]; anandamide 10 mg/kg, SHR", "result": "decreases"},
      {"measurement": "heart rate", "setting": "[1]; anandamide 10 mg/kg, SHR", "result": "decreases"},
      {"measurement": "blood pressure", "setting": "[7]; anandamide 10 mg/kg", "result": "modest and short-lasting"},
      {"measurement": "cardiac contractility", "setting": "[7]; anandamide 10 mg/kg", "result": "modest and short-lasting"},
      {"measurement": "duration of decrease in blood pressure and cardiac contractility", "setting": "[7]; anandamide 10 mg/kg", "result": "< 5", "unit": "min"},
      {"measurement": "other hemodynamic changes", "setting": "[7]; anandamide 10 mg/kg", "result": "without other hemodynamic changes"},
      {"measurement": "anandamide-induced hypotension", "setting": "[8]; rats with angiotensin II-induced hypertension", "result": "potentiated"}
    ]},
    {"smiles": "CCCCC/C=C\\C/C=C\\C/C=C\\C/C=C\\CCCC(=O)Nc1ccc(O)cc1", "note": "[AM404]", "values": [
      {"measurement": "change in MAP", "setting": "[1]; AM404 10 mg/kg, SHR", "result": "−63±19", "unit": "mm Hg"},
      {"measurement": "change in MAP", "setting": "[7]; AM404 10 mg/kg", "result": "no significant change"}
    ]},
    {"smiles": "CCCCCCCC/C=C\\CCCCCCCC(=O)N[C@@H](CO)Cc1ccc(O)cc1", "note": "[OMDM-2]", "values": [
      {"measurement": "change in MAP", "setting": "[1]; OMDM-2 5 mg/kg, SHR", "result": "−39±10", "unit": "mm Hg"},
      {"measurement": "change in MAP", "setting": "[7]; OMDM-2 5 mg/kg", "result": "no significant change"}
    ]}
  ]
}
